Here are results for 4 molecules from patent US20060229239A9, “Novel curcuminoid-factor VIIa constructs as suppressors of tumor growth and angiogenesis” (priority 2002, published 2006).

Marks after values point to notes of the source that are not given here.

For series [1], the system named is HUVECs. As to the kind of experiment: Neutral Red viability assay, HUVECs. It counts as cell-based, human. Conditions: 24 hrs. How it is done: (§1) HUVECs, MS-1 cells and SVR cells were cultured to confluence and agents were incubated for 24 hrs. Cell viability was determined by Neutral Red assays. Among synthetic curcumin analogs, A279L, A279U and EF-15 were not cytotoxic at 20 μM. MS-I cells were murine vascular endothelial cells which were immortalized by transfection of SV40 large T antigen but are non-maligant. However, when MS-1 cells were transfected with a ras mutant gene, cells were transformed to become malignant angiosarcoma cells, (SVR cells).

A further series relates to SVR cells. As to the kind of experiment: Neutral Red viability assay, SVR cells. It counts as cell-based, murine. Conditions: 24 hrs. The procedure:
as §1

For another series, the system named is MS-1 cells. As to the kind of experiment: Neutral Red viability assay, MS-1 cells. It counts as cell-based, murine. Conditions: 24 hrs. The procedure:
as §1

In another series the test system is DU145. As to the kind of experiment: SRB viability test, DU145 human prostate cancer cell line expressing tissue factor. In kind it is cell-based. Conditions: for O.D. 570 nm, SRB Viability Test: 48 hrs, Mean S.D. How it is done: DU145 cells were plated with 2×10^4 cells/100 μl/well in a 96 well plate and cultured overnight. The cells were cultured for 48 hrs. Cultures was terminated by adding 40% TCA to a final concentration of 10%. Cells were fixed in TCA at 4° for 1 hr, washed with tap water 5 times and air dried. Sulforhodamine B (SRB) solution (100 μl) at 0.4% (w/v) in 1% acetic acid was added to each well, and the cells were incubated for 10 mins at room temperature. After staining, unbound dye was removed by washing five times with 1% acetic acid and air dried. […] Assays were performed in triplicate or quadruplicate. An asterisk (*) indicates p<0.0001 by the Student t-test (two-tailed probability). The concentration of EF24-FFRck-fVIIa was estimated based on protein concentration.

Series [2] has as its system cells with or without tissue factor on the cell surface. As to the kind of experiment: Cell killing in relation to tissue factor expression on the cell surface (summary). In kind it is cell-based. The source says: One aspect of the present invention provides novel compositions comprising cytotoxic compounds such as synthetic antitumor and anti-angiogenesis curcumin analogs (curcuminoids) linked to a protein delivery vehicle that can deliver the cytotoxic compoun specifically to cancer cells and vascular endothelial cells having surface-bound tissue factor. Novel compositions of the present invention can comprise a curcuminoid covalently linked to a tether which may be, but is not limited to, a dicarboxylic acid such as succinate. The tether is covalently linked to a N-terminal amino acid of a peptidyl linker such as phenylalanine-phenylalanine-arginine, the C-terminal amino acid of which comprises a methylketone. […] Preferably, the curcuminoid-tether-linker will have bonded to an amino acid of the serine protease domain of the fVIIa, thereby blocking the procoagulating activity of the novel therapeutic composition. The present invention also provides methods of synthesis of cytotoxic compound-protein conjugates. The compositions and methods of the present invention may increase the efficacy of the cytotoxic agents and decrease their side effects by delivering the agents to specific target cells. […] The conjugate EF24-FFRck-fVIIa construct of the present invention kills cancer cell lines and vascular endothelial cells, such as HUVECs, that express tissue factor on the cell surface.

For another series, the system named is normal human melanocytes. As to the kind of experiment: NR viability test, normal human melanocytes (no tissue factor). It counts as cell-based. Conditions: Mean ± S.D. How it is done: (§2) The Neutral Red (NR) dye viability assay, instead of the Sulforhodamine B (SRB) assay, was used. In the NR viability assay, NR dye is taken up only by viable cells, while in the SRB viability assay, viable cells are fixed by trichloracetic acid (TCA) on the plate (thus, cells are killed), and the fixed cells are stained by SRB dye.
(§3) At the termination of culture, medium was removed and 200 μl of fresh, warm medium containing 50 μg of NR/ml was added to each well in a 96-well plate. Cells were incubated at 37° for 30 mins, followed by two washes with 200 μl of PBS. The NR taken up by cells was dissolved by adding 200 μl of 0.5N HCI containing 35% ethanol. The amount of the dye in each well was read at 570 nm by an ELISA plate reader.

The next series has as its system tumor cells. As to the kind of experiment: NCI screening system, tumor cells. In kind it is cell-based. How it is done:
Curcumin, EF24 and cisplatin were tested against tumor cells in the NCI screening system. Curcuminoids were also added to transformed breast cancer cells and the mean growth inhibitory concentrations determined, as shown in FIG. 5.

A further series has as its system MCF10. As to the kind of experiment: NR viability test, MCF10 normal human breast luminal ductal cell line (no tissue factor). In kind it is cell-based. Conditions: Normal Breast Cells (MCF10), Mean ± S.D. How it is done:
as §2, §3

The next series has as its system MDA-MB-231. In words: Neutral Red (NR) viability test, human breast cancer MDA-MB-231. In kind it is cell-based. Conditions: Mean ± S.E. How it is done:
as §2, §3

For the next series, the system named is RPMI-7951. In words: Neutral Red (NR) viability test, human melanoma RPMI-7951. It counts as cell-based. Conditions: Mean ± S.E. The procedure: as §2, §3
The subject of series [3] is HUVECs. In words: SRB viability test (NCI method), normal HUVECs not expressing tissue factor. It counts as cell-based, human. Conditions: Mean ± S.D.
The nature of a further series: Cell cytotoxicity assays. It counts as cell-based. How it is done:
Of several compounds examined, the succinic acid derivative aa (86% yield) was suitable since it retained 50% of the activity of EF24 in cell cytotoxicity assays. To synthesize the succinyl derivative aa of EF24, to a solution of EF24 (0.16 g, 0.5 mmol) in anhydrous CH2Cl2 (6 ml) was added succinic anhydride (0.057 g, 0.5 mmol) and Et3N (101 mg, 1 mmol). The mixture was stirred at room temperature for 3 hrs, diluted with CH2Cl2, washed twice with saturated NaHCO3 (2×10 ml) and brine, dried over anhydrous Na2SO4, and relieved of solvent by evaporation. The resulting solid was purified by flash chromatography using benzene/acetone/acetic acid (27:10:0.5) as the eluant to obtain the yellow solid aa ([…], mp 145° C., 86% yield). [drawing 15]

Consider `COc1cc(/C=C/C(=O)CC(=O)/C=C/c2ccc(O)c(OC)c2)ccc1O` [Curcumin, diferuloylmethane], for which the “Neutral Red Viability Assay (% of Control)” value is 103 % of Control with HUVECs [1] (1 μM); 21 % of Control with HUVECs [1] (20 μM); 88 % of Control in the series on SVR cells (1 μM); 4 % of Control in the series with SVR cells (20 μM); 90 % of Control with MS-1 cells (1 μM); 3 % of Control with MS-1 cells (20 μM).

For `O=C1/C(=C/c2ccccc2F)CNC/C1=C\c1ccccc1F` [EF24, 3,5-Bis-(2-fluorobenzylidene)-piperidin-4-one], the “O.D. 570 nm, SRB Viability Test” value with DU145 (DU145, 0.8 pM) was 0.391 ± 0.041; in the series with DU145 (DU145, 8 pM), 0.053 ± 0.025*. Also, in series [2], the “killing of cancer cells and normal cells regardless of tissue factor expression” value is on record as “indiscriminatingly kills”. The “O.D 570 nm, NR Viability Test” value with normal human melanocytes (0.8 pM) is recorded as 0.255 ± 0.009; in the series with normal human melanocytes (4 pM), 0.119 ± 0.009; with MCF10 (0.8 pM), 0.104 ± 0.018; with MCF10 (4 pM) it was 0.091 ± 0.007. The “potency relative to cisplatin” value with tumor cells is given as “about 10 times”. The “effectiveness against tumor cells compared with cisplatin or curcumin” value in the series on tumor cells (NCI screening system, FIG. 4) is on record as “significantly more effective”. The “O.D. 570 nm, NR Viability Test” value is recorded as 0.172 ± 0.020 in the series on MDA-MB-231 (MDA231, 1 pM); 0.109 ± 0.014 with MDA-MB-231 (MDA231, 2 pM); 0.220 ± 0.023 with RPMI-7951 (RPM17951, 1 pM); 0.119 ± 0.018 in the series with RPMI-7951 (RPM17951, 2 pM). Besides, the “O.D. 490 nm, SRB Viability Test” value in the series with HUVECs [3] (0.8 pM) is 0.136 ± 0.010; in the series with HUVECs [3] (8 pM) it was 0.038 ± 0.010.

For `N=C(N)NCCC[C@H](NC(=O)[C@H](Cc1ccccc1)NC(=O)[C@@H](Cc1ccccc1)NC(=O)CCC(=O)N1C/C(=C\c2ccccc2F)C(=O)/C(=C/c2ccccc2F)C1)C(=O)CCl` [EF24-FFRck], the “O.D. 570 nm, SRB Viability Test” value was 0.389 ± 0.021 in the series on DU145 (DU145, 0.8 pM) and 0.383 ± 0.027 with DU145 (DU145, 8 pM). Also, in the series on DU145 (EF24-FFRck alone, Table 2), the cell killing entry is reported as “does not kill any cells”. Besides, the “killing of cancer cells and normal cells regardless of tissue factor expression” value in series [2] is listed as “does not kill”. Further, the “O.D 570 nm, NR Viability Test” value is given as 0.252 ± 0.007 with normal human melanocytes (0.8 pM), 0.249 ± 0.015 with normal human melanocytes (4 pM), 0.101 ± 0.013 in the series on MCF10 (0.8 pM) and 0.113 ± 0.003 in the series with MCF10 (4 pM). The “O.D. 570 nm, NR Viability Test” value was 0.191 ± 0.013 with MDA-MB-231 (MDA231, 1 pM); 0.171 ± 0.009 with MDA-MB-231 (MDA231, 2 pM); 0.253 ± 0.018 in the series on RPMI-7951 (RPM17951, 1 pM); 0.247 ± 0.020 with RPMI-7951 (RPM17951, 2 pM). Also, the “O.D. 490 nm, SRB Viability Test” value is listed as 0.152 ± 0.026 in the series on HUVECs [3] (0.8 pM) and 0.160 ± 0.038 in the series with HUVECs [3] (8 pM).

Take `O=C(O)CCC(=O)N1C/C(=C\c2ccccc2F)C(=O)/C(=C/c2ccccc2F)C1` [aa]: the “activity retained relative to EF24 in cell cytotoxicity assays” value in “Cell cytotoxicity assays” was determined as 50%.
